Test system: angioedema in CSU patients
Assay: Phase 2 CSU study: angioedema activity score over 7 days (AAS7)
Type: in vivo, human
Settings: for Non-responder n (%), AAS7 = 0 / OR (95% CI) for rilzabrutinib vs. placebo, AAS7 = 0 / RRD (%) for rilzabrutinib vs. placebo (95% CI), AAS7 = 0 / Responder n (%), AAS7 = 0: outlier removed
Text: The study comprises a 12 week, randomized, double-blind, placebo-controlled, multi-center, dose-ranging efficacy and safety phase, followed by a 40 week open label extension (OLE) phase (see FIG. 1). The study consists of three phases and an optional OLE phase. […] The weekly angioedema activity score (AAS7) was proposed as a tertiary endpoint. […] Patients were to complete the AAS using the e-diary. The e-diary was to be used once daily on the same time of each day recording of participant's answers to the angioedema activity score over 7 days (AAS7) questionnaire.

[1] = 400 mg TID, Week 1, ITT, angioedema at baseline
[2] = 400 mg TID, Week 1, omalizumab-naïve
[3] = 400 mg TID, Week 1, omalizumab-naïve, angioedema at baseline
[4] = 400 mg TID, Week 2, ITT, angioedema at baseline
[5] = 400 mg TID, Week 2, omalizumab-naïve
[6] = 400 mg TID, Week 2, omalizumab-naïve, angioedema at baseline
[7] = 400 mg TID, Week 3, ITT, angioedema at baseline
[8] = 400 mg TID, Week 3, omalizumab-naïve
[9] = 400 mg TID, Week 3, omalizumab-naïve, angioedema at baseline
[10] = 400 mg TID, Week 4, ITT, angioedema at baseline
[11] = 400 mg TID, Week 4, omalizumab-naïve

In the case of `CC(C)(C=C(C#N)C(=O)N1CCC[C@@H](n2nc(-c3ccc(Oc4ccccc4)cc3F)c3c(N)ncnc32)C1)N1CCN(C2COC2)CC1` [rilzabrutinib, (R)-2-[3-[4-amino-3-(2-fluoro-4-phenoxy-phenyl)pyrazolo[3,4-d]pyrimidin-1-yl]piperidine-1-carbonyl]-4-methyl-4-[4-(oxetan-3-yl)piperazin-1-yl]pent-2-enenitrile], the “Participants with AAS7 = 0, Responder n (%)” value (“Participants … (%)” below) (400 mg QPM, Week 12, omalizumab-naïve, angioedema at baseline) is reported as 6 (22.2) n (%), the “LS mean change from baseline in AAS7 at Week 12” value (400 mg TID, ITT population, angioedema at baseline) is reported as −43.36 points and the “AAS7 % Change difference for rilzabrutinib vs. placebo LS Mean (95% CI)” value (from here on “AAS7 % Change difference … (95% CI)”) [1] is reported as −34.55 (−66.00, −3.09) %. For the same compound, the “AAS7 % Change from baseline LS Mean (SE)” value [1] was −54.51 (9.77) %, the “AAS7 Change difference for rilzabrutinib vs. placebo LS Mean (95% CI)” value (“AAS7 Change difference … (95% CI)” for short) [1] was −15.05 (−28.44, −1.67) and the “AAS7 Change from baseline LS Mean (SE)” value [1] was −29.55 (4.16). For the same compound, the “AAS7 Post-baseline Mean (SD)” value [1] was 17.50 (22.29), the “Non-responder n (%), AAS7 = 0” value [2] was 16 (47.1) n (%) and the “OR (95% CI) for rilzabrutinib vs. placebo, AAS7 = 0” value [2] was 2.576. The “RRD (%) for rilzabrutinib vs. placebo (95% CI), AAS7 = 0” value (“RRD (%) … (95% CI), AAS7 = 0” below) [2] was 21.8 %, the “Responder n (%), AAS7 = 0” value [2] was 18 (52.9) n (%) and the “AAS7 % Change difference … (95% CI)” value [3] was −36.35 (−71.01, −1.69) %. For the same compound, the “AAS7 % Change from baseline LS Mean (SE)” value [3] was −53.40 (10.59) %, the “AAS7 = 0, Non-responder n (%)” value [3] was 16 (69.6) n (%) and the “AAS7 = 0, OR (95% CI) for rilzabrutinib vs. placebo” value (shortened to “AAS7 = 0, OR (95% CI)”) [3] was 9.250. For the same compound, the “AAS7 = 0, RRD (%) for rilzabrutinib vs. placebo (95% CI)” value (shortened to “AAS7 = 0, RRD (%) … (95% CI)”) [3] was 21.8 %, the “AAS7 Change difference … (95% CI)” value [3] was −16.03 (−30.69, −1.38) and the “AAS7 Change from baseline LS Mean (SE)” value [3] was −29.80 (4.48). For the same compound, the “AAS7 Post-baseline Mean (SD)” value [3] was 18.96 (23.24), the “Participants … (%)” value [3] was 7 (30.4) n (%) and the “AAS7 % Change from baseline LS Mean (SE)” value [4] was −60.12 (12.38) %. The “AAS7 Change difference … (95% CI)” value [4] was −11.45 (−23.02, 0.12), the “AAS7 Change from baseline LS Mean (SE)” value [4] was −32.35 (4.37) and the “AAS7 Post-baseline Mean (SD)” value [4] was 15.52 (20.15). For the same compound, the “Non-responder n (%), AAS7 = 0” value [5] was 16 (47.1) n (%), the “OR (95% CI) for rilzabrutinib vs. placebo, AAS7 = 0” value [5] was 1.556 and the “RRD (%) … (95% CI), AAS7 = 0” value [5] was 10.2 %. The “Responder n (%), AAS7 = 0” value [5] was 18 (52.9) n (%), the “AAS7 % Change difference … (95% CI)” value [6] was −22.03 (−57.92, 13.85) % and the “AAS7 % Change from baseline LS Mean (SE)” value [6] was −59.25 (13.33) %. The “AAS7 = 0, Non-responder n (%)” value [6] was 14 (60.9) n (%), the “AAS7 = 0, OR (95% CI)” value [6] was 1.922 and the “AAS7 = 0, RRD (%) … (95% CI)” value [6] was 12.9 %. The “AAS7 Post-baseline Mean (SD)” value [6] was 17.03 (20.90), the “Participants … (%)” value [6] was 9 (39.1) n (%) and the “AAS7 % Change difference … (95% CI)” value [7] was −24.93 (−66.27, 16.41) %. The “AAS7 % Change from baseline LS Mean (SE)” value [7] was −73.45 (15.58) %, the “AAS7 Change difference … (95% CI)” value [7] was −12.00 (−23.87, −0.13) and the “AAS7 Change from baseline LS Mean (SE)” value [7] was −36.15 (4.48). The “AAS7 Post-baseline Mean (SD)” value [7] was 13.26 (21.30), the “Non-responder n (%), AAS7 = 0” value [8] was 12 (35.3) n (%) and the “OR (95% CI) for rilzabrutinib vs. placebo, AAS7 = 0” value [8] was 3.010. For the same compound, the “RRD (%) … (95% CI), AAS7 = 0” value [8] was 26.5 %, the “Responder n (%), AAS7 = 0” value [8] was 22 (64.7) n (%) and the “AAS7 % Change difference … (95% CI)” value [9] was −25.10 (−70.77, 20.57) %. The “AAS7 % Change from baseline LS Mean (SE)” value [9] was −72.78 (16.93) %, the “AAS7 = 0, Non-responder n (%)” value [9] was 11 (47.8) n (%) and the “AAS7 = 0, OR (95% CI)” value [9] was 3.063. The “AAS7 = 0, RRD (%) … (95% CI)” value [9] was 22.5 %, the “AAS7 Post-baseline Mean (SD)” value [9] was 14.08 (22.48) and the “Participants … (%)” value [9] was 12 (52.2) n (%). For the same compound, the “AAS7 % Change difference … (95% CI)” value [10] was −41.77 (−78.55, −4.98) %, the “AAS7 % Change from baseline LS Mean (SE)” value [10] was −78.35 (13.78) % and the “AAS7 Change difference … (95% CI)” value [10] was −15.67 (−27.11, −4.22). The “AAS7 Change from baseline LS Mean (SE)” value [10] was −38.27 (4.30), the “AAS7 Post-baseline Mean (SD)” value [10] was 11.20 (15.95) and the “Non-responder n (%), AAS7 = 0” value [11] was 18 (52.9) n (%). The “RRD (%) … (95% CI), AAS7 = 0” value [11] was 1.1 % and the “Responder n (%), AAS7 = 0” value [11] was 16 (47.1) n (%).

Reference: patent US20260256792A1, “TREATMENT OF CHRONIC SPONTANEOUS URTICARIA BY ADMINISTERING (R)-2-[3-[4-AMINO-3-(2-FLUORO-4-PHENOXY-PHENYL)PYRAZOLO[3,4-D]PYRIMIDIN-1-YL]PIPERIDINE-1-CARBONYL]-4-METHYL-4-[4-(OXETAN-3-YL)PIPERAZIN-1-YL]PENT-2-ENENITRILE” (priority 2023, published 2026)
